In one test the target is T1, cyclooxygenase (Rattus norvegicus, UniProt Q63921).
T1 construct: microsomal fraction containing lipoxygenase and cyclooxygenase; endogenous in cells; host or cells: RBL-1 (rat basophilic leukemia) cells, homogenate / microsomal fraction
T1 sequence (Q63921 27-602): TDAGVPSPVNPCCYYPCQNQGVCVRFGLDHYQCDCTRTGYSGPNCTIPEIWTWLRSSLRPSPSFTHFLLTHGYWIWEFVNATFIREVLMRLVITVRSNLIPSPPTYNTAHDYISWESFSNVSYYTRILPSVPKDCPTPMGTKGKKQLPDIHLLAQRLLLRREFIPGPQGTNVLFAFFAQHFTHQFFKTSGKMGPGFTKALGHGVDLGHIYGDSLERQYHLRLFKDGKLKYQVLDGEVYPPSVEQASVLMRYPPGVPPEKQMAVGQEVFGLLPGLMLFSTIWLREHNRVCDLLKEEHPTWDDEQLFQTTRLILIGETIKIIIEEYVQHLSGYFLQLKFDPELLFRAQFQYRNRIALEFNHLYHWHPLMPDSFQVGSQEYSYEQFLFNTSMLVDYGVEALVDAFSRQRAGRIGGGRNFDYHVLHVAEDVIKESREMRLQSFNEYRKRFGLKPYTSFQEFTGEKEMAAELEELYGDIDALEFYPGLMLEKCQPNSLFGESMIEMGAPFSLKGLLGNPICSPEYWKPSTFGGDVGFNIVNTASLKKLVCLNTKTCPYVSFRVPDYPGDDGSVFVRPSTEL
Kind of test: Inhibition of cyclooxygenase derived from rat basophilic leukemia (RBL-1) cells, product C1 (PGD2). It counts as biochemical. The settings on record: for inhibition at 1 µM: dose of 1 μM, read-out: % Inhibition of cyclooxygenase (C1) formation. The procedure:
(§1) The primary screening test used is a determination of the inhibition of lipoxygenase and cyclooxygenase derived from rat basophilic leukemia (RBL-1) cells. The test was carried out according to the following procedure:
(§2) Single cell suspensions of RBL-1 cells are homogenized to obtain the microsomal fraction containing lipoxygenase and cyclooxygenase. Test compounds are added to the enzyme-containing homogenate for a 5 min preincubation period at 37° C. prior to the addition of ^14 C-arachidonic acid substrate. Following incubation at 37° C. for 15 min, the reaction is stopped by the addition of 2M formic acid and the enzyme-substrate products are extracted into chloroform. An aliquot of the extract is evaporated to dryness, reconstituted in ether to 1/10 original volume, spotted in thin layer chromatography plates and chromatographed. The peak areas of radioactivity representing the products are located by scanning the plates. The quantity of products formed is estimated by measuring the height of the radioactivity peaks observed on the chromatographic scans. Alternatively, the areas of radioactivity are scraped from the plate and the ^14 C quantitated by scintillation counting.

The target of another test is T2, lipoxygenase (Rattus norvegicus, UniProt P12527).
T2 construct: microsomal fraction containing lipoxygenase and cyclooxygenase; endogenous in cells; host or cells: RBL-1 (rat basophilic leukemia) cells, homogenate / microsomal fraction
T2 sequence (P12527 1-673): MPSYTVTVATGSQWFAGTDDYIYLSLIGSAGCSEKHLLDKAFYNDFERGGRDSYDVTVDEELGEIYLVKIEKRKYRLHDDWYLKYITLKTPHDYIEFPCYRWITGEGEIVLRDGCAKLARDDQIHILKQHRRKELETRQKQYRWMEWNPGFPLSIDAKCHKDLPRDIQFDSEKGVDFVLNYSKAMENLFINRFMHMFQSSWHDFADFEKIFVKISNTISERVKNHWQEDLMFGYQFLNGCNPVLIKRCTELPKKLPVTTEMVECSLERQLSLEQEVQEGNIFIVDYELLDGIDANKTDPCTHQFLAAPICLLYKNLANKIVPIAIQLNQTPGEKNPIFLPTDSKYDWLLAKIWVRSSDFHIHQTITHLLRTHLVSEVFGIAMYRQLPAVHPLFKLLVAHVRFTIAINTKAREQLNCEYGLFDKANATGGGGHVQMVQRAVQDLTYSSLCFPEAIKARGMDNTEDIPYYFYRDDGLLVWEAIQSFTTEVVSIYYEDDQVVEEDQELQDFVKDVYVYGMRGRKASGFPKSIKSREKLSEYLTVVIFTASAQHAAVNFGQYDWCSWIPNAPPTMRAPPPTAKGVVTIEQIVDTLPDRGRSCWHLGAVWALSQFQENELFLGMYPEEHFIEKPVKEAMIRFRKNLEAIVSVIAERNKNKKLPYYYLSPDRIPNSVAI
Kind of test: Inhibition of lipoxygenase derived from rat basophilic leukemia (RBL-1) cells, products L1 (5,12-di-HETE) and L2 (5-HETE). It counts as biochemical. The protocol:
as §1, §2

In test [1] the test system is SRS-A component of immunologically induced broncho-constriction. Kind of test: Effect on the SRS-A component of immunologically induced broncho-constriction in guinea pigs. It counts as in vivo. The note with it: guinea pig, intravenous. The procedure: The test was carried out according to the following procedure:
Two weeks after immunization with egg albumin, guinea pigs are prepared for bronchoconstriction determination. One hour prior to antigen challenge, each animal is dosed orally with indomethacin and chlorpheniramine. Animals are anesthetized with sodium pentobarbital, the trachea cannulated and the animal artifically respired. Arachidonic acid is administered intravenously prior to antigen challenge. The resulting bronchoconstriction is recorded by the standard lung overflow procedure and the peak increase in intratracheal pressure (mm Hg) over a 10 minute observation period is recorded. Compounds are evaluated for their ability to prevent the increased intratracheal pressure in an experimental group of animals as compared to the medicated (indomethacin+chlorpheniramine+arachidonic acid) control group. The results are expressed in terms of percent inhibition or as ED50 values (effective dose in 50% of the animals).

The mark [2] stands for this setting: read-out: % Inhibition of lipoxygenase (L1) formation.
Setting [3] is: read-out: % Inhibition of lipoxygenase (L2) formation.

Structures are written as SMILES. Read-outs that look alike come from different tables or passages of the source. A value given as a limit tells only on which side of the number the result lay.

A word on the IC50: it is the concentration that gives 50% inhibition. Higher therefore signals weaker potency. What is called inhibition is the change of the read-out against control, counted positive when it falls. For `O=C(c1ccccc1Nc1ccc(O)cc1)N1CCCCC1` [Example 1(d), 1-[2-(4-Hydroxyphenylamino)benzoyl]piperidine], the half-inhibitory concentration (IC50) against cyclooxygenase is over 100000 nM; against lipoxygenase (IC50 L1, L1 = 5,12-di-HETE), 3500 nM; on lipoxygenase (IC50 L2, L2 = 5-HETE), 600 nM. For the same compound, the inhibition at 1 µM at cyclooxygenase came out at 0%; at lipoxygenase (setting [2]), 19%; at lipoxygenase (setting [3]) it was 64%. In addition, the “percent inhibition of increased intratracheal pressure (bronchoconstriction)” value in test [1] (highest soluble dose (0.1 mg/kg)) is 48%.
A word on the ED50: it is the dose at which the effect has come halfway, by size or by number of responders. In the case of `O=C(NCc1ccccc1)c1ccccc1Nc1ccc(O)cc1` [Example 11(b), 2-(4-Hydroxyphenylamino)-N-benzylbenzamide], the concentration for half-maximal inhibition (IC50) against cyclooxygenase is over 1000 nM; against lipoxygenase (IC50 L1, L1 = 5,12-di-HETE) it was 70 nM; on lipoxygenase (IC50 L2, L2 = 5-HETE) it was 40 nM. Further, the inhibition at 1 µM on cyclooxygenase was 0%; on lipoxygenase (setting [2]), 87%; at lipoxygenase (setting [3]), 96%. The median effective dose (ED50) in test [1] (Cavia porcellus, read-out: ED50 (effective dose in 50% of the animals)) was determined as 0.61 mg/kg.
